Key:
Experiment in all cases: relative viability (nuclei count vs DMSO), 5 days (fraction); higher = more cells survive
[1] = compound: C1=CC=C2C(=C1)N=C(S2)C(C#N)C3=NC(=NC=C3)NCCC4=CN=CC=C4 + CC1(C)CCC(c2ccc(Cl)cc2)=C(CN2CCN(c3ccc(C(=O)NS(=O)(=O)c4ccc(N[C@H](CCN5CCOCC5)CSc5ccccc5)c(S(=O)(=O)C(F)(F)F)c4)cc3)CC2)C1 [Navitoclax] (partner 0.5 µM)
Method in brief: (§1)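 Lung cancer cell lines were seeded in 1536-well plates and dosed by pin tool the next day, with either a single drug or a fixed anchor-drug dose combined with five library-drug doses (not always all listed) spaced in √10 steps. Five days later, one step fixed the cells and stained their nuclei (final 0.05% Triton X-100, 1% formaldehyde, 1 ug/ml Hoechst), and nuclei were counted on 4× images. Relative viability is the nuclei count in treated wells divided by the count in vehicle wells, and each value is the median of duplicate plates.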

Vandetanib + Tozasertib = compound: COc1cc2/c(=N/c3ccc(Br)cc3F)nc[nH]c2cc1OCC1CCN(C)CC1 [Vandetanib] + Cc1cc(Nc2cc(N3CCN(C)CC3)nc(Sc3ccc(NC(=O)C4CC4)cc3)n2)n[nH]1 [Tozasertib] (partner 0.1 µM)
Method in brief: as §1

NVP-TAE684 + Linsitinib = compound: COc1cc(N2CCC(N3CCN(C)CC3)CC2)ccc1Nc1ncc(Cl)c(Nc2ccccc2S(=O)(=O)C(C)C)n1 [NVP-TAE684] + C[C@]1(O)C[C@@H](c2nc(-c3ccc4ccc(-c5ccccc5)nc4c3)c3c(N)nccn32)C1 [Linsitinib] (partner 1 µM)
Method in brief: as §1

NVP-TAE684 + Bortezomib = compound: COc1cc(N2CCC(N3CCN(C)CC3)CC2)ccc1Nc1ncc(Cl)c(Nc2ccccc2S(=O)(=O)C(C)C)n1 [NVP-TAE684] + CC(C)C[C@H](NC(=O)[C@H](Cc1ccccc1)NC(=O)c1cnccn1)B(O)O [Bortezomib] (partner 0.002 µM)
Method in brief: as §1

Cell Line | relative viability ([1]; first compound 0.005 µM) | relative viability ([1]; first compound 0.01581 µM) | relative viability ([1]; first compound 0.05 µM) | relative viability ([1]; first compound 0.1581 µM) | relative viability ([1]; first compound 0.5 µM) | relative viability (Vandetanib + Tozasertib; first compound 0.02 µM) | relative viability (Vandetanib + Tozasertib; first compound 0.06325 µM) | relative viability (Vandetanib + Tozasertib; first compound 0.2 µM) | relative viability (Vandetanib + Tozasertib; first compound 0.6325 µM) | relative viability (Vandetanib + Tozasertib; first compound 2 µM) | relative viability (NVP-TAE684 + Linsitinib; first compound 0.2 µM) | relative viability (NVP-TAE684 + Linsitinib; first compound 0.6325 µM) | relative viability (NVP-TAE684 + Linsitinib; first compound 2 µM) | relative viability (NVP-TAE684 + Bortezomib; first compound 0.2 µM) | relative viability (NVP-TAE684 + Bortezomib; first compound 0.6325 µM) | relative viability (NVP-TAE684 + Bortezomib; first compound 2 µM)
CAL-12T | 0.993 | 1.38 | 1.11 | 1.35 | 0.993 | 0.346 | 0.314 | 0.148 | 0.249 | 0.278 | 0.726 | 0.767 | 0.541 | 0.974 | 0.645 | 0.366
A-427 | 0.964 | 0.95 | 0.956 | 0.896 | 1.05 | 0.215 | 0.248 | 0.219 | 0.155 | 0.223 | 1.22 | – | 1.07 | 1.1 | – | 0.78
NCI-H1975 | 0.852 | 1.15 | 1.03 | 1.18 | 0.695 | 0.771 | 0.714 | 0.0829 | 0.685 | 0.74 | 1.01 | 0.97 | 0.269 | 0.359 | 0.362 | 0.21
NCI-H1993 | 0.911 | 0.802 | 0.896 | 0.929 | 0.81 | 0.639 | 0.601 | 0.481 | 0.561 | 0.521 | – | 0.66 | 0.658 | – | 1.09 | 0.806
NCI-H2023 | 0.971 | 0.979 | 0.948 | 1.13 | 0.707 | 0.436 | 0.31 | 0.217 | 0.298 | 0.337 | 0.517 | 0.669 | 0.265 | – | 0.944 | 0.268
201T | 1.14 | 1.22 | 1.14 | 1.24 | 1.2 | 0.927 | 0.992 | 1.01 | 0.92 | 0.938 | 1.1 | – | 0.925 | 1.11 | 1.01 | 1.11
SW 1573 | 0.863 | 1.15 | – | 1.03 | 0.828 | 0.153 | 0.169 | 0.19 | 0.174 | 0.195 | 0.907 | 0.692 | 0.795 | 1.02 | – | 0.927
NCI-H647 | – | 1.22 | 0.955 | 1.34 | 0.979 | 0.265 | 0.2 | 0.141 | 0.221 | 0.255 | 1.49 | 1.09 | 0.522 | 1.38 | 1.11 | 0.77
HCC-78 | 0.454 | 0.774 | 0.623 | 0.912 | 0.818 | 0.502 | 0.451 | 0.41 | 0.548 | 0.404 | 0.403 | 0.359 | 0.294 | 0.428 | 0.381 | 0.307

Source: the supplement of paper PMC10307832
